{
  "source": "patent US20130331389A1",
  "about": "“Methods and Compositions for Cardiomyocyte Replenishment by Endogenous and Progenitor Stem Cells” (NATIONAL CHENG KUNG UNIVERSITY, priority 2012, published 2013)",
  "assay_type_in_all_cases": "in vivo, mouse",
  "key": {"Nkx2.5": {"test_system": "Nkx2.5", "experiment": "Quantitative RT-PCR of Nkx2.5 in MI heart and in isolated cardiac Sca-1+ cells", "experimental": "(§1) To induce Cre recombination to achieve GFP labeling of cardiomyocytes, tamoxifen (Sigma) was dissolved in sunflower oil (Sigma) at a concentration of 5 mg/ml. The tamoxifen solution was injected intraperitoneally into M/Z mice daily at a dosage of 40 μg per 1 g body weight for 14 days, and the same dosage was injected twice daily for short-term labeling using methods known in the art (Laugwitz, K.-L. et al. Nature 433, 647-653 (2005)). All experimental conditions were optimized prior to the PGE2, indomethacin and TGF-β Type I Receptor Kinase Inhibitor II (ALK5 Inhibitor II, ALK5i, Merck) treatments. The mice treated with PGE2 or PGI2 (Vegiopoulos, A. et al. Science 328, 1158-1161 (2010)) (both from Sigma) were injected intraperitoneally with 3.33 ng of drug per 1 g of body weight dissolved in absolute ethanol twice daily. […]\nThe total RNA isolated from the ischemic region or remote area of MI hearts was reverse transcribed using the SuperScript III (Invitrogen) system according to the manufacturer's protocol. For quantitative PCR, the SYBR Green reagent (Maestrogen) was used according to the manufacturer's protocol. The analysis of relative gene expression was performed using the 2̂[−delta delta Ct] method and sequence-specific primers designed for semi-quantitative PCR and real-time RT-PCR (FIG. 11). […]"}, "CD11b": {"test_system": "CD11b", "experiment": "Quantitative RT-PCR of myeloid cell marker CD11b in infarct region", "details": "both young and old mice; day 3 post-infarction", "experimental": "as §1\nThe total RNA isolated from the ischemic region or remote area of MI hearts was reverse transcribed using the SuperScript III (Invitrogen) system according to the manufacturer's protocol. For quantitative PCR, the SYBR Green reagent (Maestrogen) was used according to the manufacturer's protocol. The analysis of relative gene expression was performed using the 2̂[−delta delta Ct] method and sequence-specific primers designed for semi-quantitative PCR and real-time RT-PCR (FIG. 11)."}, "Sca-1+ cells": {"test_system": "Sca-1+ cells", "experiment": "Flow cytometry of Sca-1+/GFP+ cardiac small cells on day 3 post-MI", "details": "tamoxifen 80 μg/g per day for 3 days, P<0.001", "experimental": "as §1, with “daily. For the indomethacin treatment, mice were fed with water containing indomethacin (Sigma, 15 μg/ml) for different periods of time. The indomethacin-containing water was changed every 3 days. The mice subjected to the celecoxib (Lyons, T. R. et al. Nat. Med. 17, 1109-1115 (2011)) (Sigma) treatment were injected intraperitoneally with 5 μg of drug per 1 g of body weight daily. For ALK5i treatment, aged mice were injected intraperitoneally once per day with 1 μg of drug per 1 g of body weight one day before surgery and continuously until day 10 post-MI.” for “daily.”"}},
  "data": [
    {"smiles": "CCCCC[C@H](O)/C=C/C1C(O)CC(=O)C1C/C=C\\CCCC(=O)O", "note": "(stereo partly drawn) [PGE2, (5Z,11α,13E,15S)-7-[3-hydroxy-2-(3-hydroxyoct-1-enyl)-5-oxo-cyclopentyl]hept-5-enoic acid]", "values": [
      {"measurement": "expression of Nkx2.5 in Sca-1+ cells", "setting": "Nkx2.5; cardiac Sca-1+ cells isolated on day 3 after injury", "value": "elevated"},
      {"measurement": "expression of Nkx2.5 in the MI heart", "setting": "Nkx2.5; young mice, fold change normalized to sham", "value": "enhances"},
      {"measurement": "CD11b level", "setting": "CD11b", "value": "induced"},
      {"measurement": "number of Sca-1+/GFP+ cells", "setting": "Sca-1+ cells", "value": "expanding"}
    ]}
  ]
}
